Measurements taken from patent publication US20040043920A1, “Compound for chelating a metal, radiopharmaceutical, manufacturing process therefor, and diagnostic kit” (priority 2000, published 2004).

Tests used:
[1] = Brain distribution in the rat: crossing of the blood-brain barrier and striatum/cerebellum ratio; assay type: in vivo
Protocol: The model chosen is the rat. Depending on the compounds, we performed one or two sacrifice times (30 minutes or 1 hour).
At the times chosen, the brains were removed and the areas of interest were isolated and counted.
the crossing of the blood-brain barrier by the compound under consideration,
a striatum/cerebellum ratio.

[2] = HPLC analysis of rats' urine for unchanged complex; assay type: in vivo, rat; conditions: rats' urine collected 1 hour 30 minutes after injection
Protocol: (§1) The molecule was radiolabelled as described in Example (29). The radiolabelled compound is then isolated by HPLC, evaporated and taken up in 0.9% saline medium. The bioavailability in rats gives the following results (see Table 1):
The rats' urine was collected 1 hour 30 minutes after injection and analysed by HPLC. The result of this analysis is 87% of unchanged complex.

[3] = Bioavailability (biodistribution) of radiolabelled Lys-Lys bis-dithiocarbamate in rats; assay type: in vivo; conditions: rat
Protocol: as §1
time 30 minutes and 60 minutes: 3 animals per point,
time 3 hours: 2 animals per point,
time 24 hours: 1 animal per point.
The results are expressed as a percentage of dose injected per organ.

## Cc1ccc(C2CC3CCC(C2COC(=O)C2CCCCNC(=S)[S][Tc](#[N])[S]C(=S)NCCCCC(=O)N2)N3C)cc1 (centres unmarked) [Compound 52]
[1]; 30′
  Biodistribution: cerebellum: 30′: cerebellum: 0.114%
  Biodistribution: crossing of blood-brain barrier: barrier: 0.358%
  Biodistribution: striatum: striatum: 0.133%
  S/C (striatum/cerebellum ratio): 1.17
[1]; 1 h
  Biodistribution: cerebellum: 1 h: cerebellum: 0.065%
  Biodistribution: crossing of blood-brain barrier: barrier: 0.182%
  Biodistribution: striatum: striatum: 0.064%
  S/C (striatum/cerebellum ratio): 0.98

## NC(CCCCNC(=S)S)C(=O)NC(CCCCNC(=S)S)C(=O)O (centres unmarked) [Lys-Lys Bis-Dithiocarbamate]
[2]
  unchanged complex in urine: 87%
[3]; 30 min
  percentage of dose injected per organ, adrenals: 0.02 percentage of dose injected per organ
  percentage of dose injected per organ, bladder: 0.47 percentage of dose injected per organ
  percentage of dose injected per organ, blood: 0.67 percentage of dose injected per organ
  percentage of dose injected per organ, brain: 0.03 percentage of dose injected per organ
  percentage of dose injected per organ, caecum: 0.31 percentage of dose injected per organ
  percentage of dose injected per organ, colon: 0.46 percentage of dose injected per organ
  percentage of dose injected per organ, heart: 0.21 percentage of dose injected per organ
  percentage of dose injected per organ, intestine: 20.55 percentage of dose injected per organ
  percentage of dose injected per organ, kidneys: 4.55 percentage of dose injected per organ
  percentage of dose injected per organ, liver: 14.38 percentage of dose injected per organ
  percentage of dose injected per organ, lungs: 0.43 percentage of dose injected per organ
  percentage of dose injected per organ, spleen: 0.13 percentage of dose injected per organ
  percentage of dose injected per organ, stomach: 8.24 percentage of dose injected per organ
  percentage of dose injected per organ, urine: 14.39 percentage of dose injected per organ
[3]; 1 h
  percentage of dose injected per organ, adrenals: 0.01 percentage of dose injected per organ
  percentage of dose injected per organ, bladder: 0.32 percentage of dose injected per organ
  percentage of dose injected per organ, blood: 0.34 percentage of dose injected per organ
  percentage of dose injected per organ, brain: 0.01 percentage of dose injected per organ
  percentage of dose injected per organ, caecum: 0.18 percentage of dose injected per organ
  percentage of dose injected per organ, colon: 0.23 percentage of dose injected per organ
  percentage of dose injected per organ, heart: 0.10 percentage of dose injected per organ
  percentage of dose injected per organ, intestine: 32.92 percentage of dose injected per organ
  percentage of dose injected per organ, kidneys: 4.18 percentage of dose injected per organ
  percentage of dose injected per organ, liver: 9.08 percentage of dose injected per organ
  percentage of dose injected per organ, lungs: 0.28 percentage of dose injected per organ
  percentage of dose injected per organ, spleen: 0.09 percentage of dose injected per organ
  percentage of dose injected per organ, stomach: 3.36 percentage of dose injected per organ
  percentage of dose injected per organ, urine: 14.70 percentage of dose injected per organ
[3]; 3 h
  percentage of dose injected per organ, adrenals: 0.01 percentage of dose injected per organ
  percentage of dose injected per organ, bladder: 0.05 percentage of dose injected per organ
  percentage of dose injected per organ, blood: 0.20 percentage of dose injected per organ
  percentage of dose injected per organ, brain: 0.01 percentage of dose injected per organ
  percentage of dose injected per organ, caecum: 0.11 percentage of dose injected per organ
  percentage of dose injected per organ, colon: 0.19 percentage of dose injected per organ
  percentage of dose injected per organ, heart: 0.06 percentage of dose injected per organ
  percentage of dose injected per organ, intestine: 51.4 percentage of dose injected per organ
  percentage of dose injected per organ, kidneys: 3.87 percentage of dose injected per organ
  percentage of dose injected per organ, liver: 3.84 percentage of dose injected per organ
  percentage of dose injected per organ, lungs: 0.15 percentage of dose injected per organ
  percentage of dose injected per organ, spleen: 0.05 percentage of dose injected per organ
  percentage of dose injected per organ, stomach: 2.64 percentage of dose injected per organ
  percentage of dose injected per organ, urine: 0.44 percentage of dose injected per organ
[3]; 24 h
  percentage of dose injected per organ, adrenals: 0.00 percentage of dose injected per organ
  percentage of dose injected per organ, bladder: 0.01 percentage of dose injected per organ
  percentage of dose injected per organ, blood: 0.11 percentage of dose injected per organ
  percentage of dose injected per organ, brain: 0.01 percentage of dose injected per organ
  percentage of dose injected per organ, caecum: 0.66 percentage of dose injected per organ
  percentage of dose injected per organ, colon: 0.87 percentage of dose injected per organ
  percentage of dose injected per organ, heart: 0.03 percentage of dose injected per organ
  percentage of dose injected per organ, intestine: 0.49 percentage of dose injected per organ
  percentage of dose injected per organ, kidneys: 2.65 percentage of dose injected per organ
  percentage of dose injected per organ, liver: 1.33 percentage of dose injected per organ
  percentage of dose injected per organ, lungs: 0.08 percentage of dose injected per organ
  percentage of dose injected per organ, spleen: 0.04 percentage of dose injected per organ
  percentage of dose injected per organ, stomach: 0.08 percentage of dose injected per organ
  percentage of dose injected per organ, urine: 0.05 percentage of dose injected per organ
